Measurements reported in patent publication US7399479B2, “Microemulsions, especially for skin or hair treatment” (Wella AG, priority 2004, dated 2008).

Tested on: human keratinocyte cell line HaCaT
Experiment: Neutral Red Uptake (NRU) cytotoxicity test with HaCaT cells
Format: cell-based
Excerpt: NRU50 values are the NRU values used in the present invention. They characterize the concentration of a substance or composition, at which the up-take of the dye neutral red is reduced to about 50% in human keratinocyte cells. Neutral red (3-amino-7-dimethylamino-2-methyl phenazine hydrochloride) is a weak cationic dye, which easily diffuses from an outer medium through a cell membrane separating individual cells into the cell interior. Changes in the cell surface or the cell membrane by potentially harmful substances reduce the dye uptake and the retention of the dye in the cell. A high NRU50 value means a slight cell-damaging action and low cytotoxicity and is a hint of an improved eye compatibility of the tested substance or composition.
The neutral red (3-amino-7-dimethylamino-2-methyl phenazine hydrochloride) taken up by the cells exposed to the test substance is extracted and measured spectrophotometrically at 540 nm. Toxicological effects cause a reduction in the amount of taken-up neutral red in comparison to separate untreated control cells. The concentration of the test substance, which leads to a reduction of the up-taken and bound neutral red amount of about 50% in comparison to the control cells, is the NRU50-value.
The HaCaT cells are grown in Dulbecco's modified Eagle's medium with 2 mM L-glutamin, 10% (v/v) foetal calf serum (FCS), 100 IU penicillin and 100 μg/ml streptomycin added in an atmosphere having 95% humidity and 5% CO2.
In pretests an approximate NRU50 value is determined with 8 different concentrations of the test substance. On this basis eight suitable concentrations around these approximate values are selected for the final measurements. The measurement is repeated with an independent batch with equal concentrations. Sodium lauryl sulfate with concentrations of 50, 25, 10 and 1 μg/ml is used as reference substance.
Approximately 2*10^4 HaCaT cells in 250 μl growth medium per receptacle are placed in 60 central receptacles of microtiter plates each with 96 receptacles. The corner receptacles act as controls and contain only the growth medium. The plates are incubated for 24 hours at 37° C. in a moist atmosphere with 5% CO2 and 95% air. The culture medium is removed and either replaced by pure treatment medium or by treatment medium containing the various concentration of the test substance to be tested or the reference substance.
After an acting time of 24 hours the treatment medium is replaced by storage medium, which contains 50 μg/ml of neutral red. The plates are placed again in the incubator for three hours. After that the medium is removed, the cells washed with a fixative (1% formaldehyde, 1% calcium chloride) and 100 μl of an extraction solution (1% acetic acid in 50% ethanol) is added to each receptacle for dye extraction. After 20 minutes the absorption is measured at 540 nm with a microplate reader. Concentration/effectiveness diagrams are drawn or plotted, expressed as percent viability of the negative control cells (CC) relative to the respective test concentrations from the average values and after correction with the null value from the BC receptacles.

Substance | NRU [µg/mL] | NRU50 [µg/mL]
Ceteareth-20 [EUMULGIN® B2] | 5.8 | 
Oleth-5 [EUMULGIN® 05] | 7.8 | 
Oleth-20 [VOLPO® N20] | 6.2 | 
PEG-40 Hydrogenated Castor Oil [CREMOPHOR® RH 410] |  | 188
PEG-60 Hydrogenated Castor Oil [CREMOPHOR® CO60] |  | 203
